# Molecular target: T1, LpxC enzyme (Escherichia coli, UniProt P0A725)
# T1 sequence (P0A725 1-305): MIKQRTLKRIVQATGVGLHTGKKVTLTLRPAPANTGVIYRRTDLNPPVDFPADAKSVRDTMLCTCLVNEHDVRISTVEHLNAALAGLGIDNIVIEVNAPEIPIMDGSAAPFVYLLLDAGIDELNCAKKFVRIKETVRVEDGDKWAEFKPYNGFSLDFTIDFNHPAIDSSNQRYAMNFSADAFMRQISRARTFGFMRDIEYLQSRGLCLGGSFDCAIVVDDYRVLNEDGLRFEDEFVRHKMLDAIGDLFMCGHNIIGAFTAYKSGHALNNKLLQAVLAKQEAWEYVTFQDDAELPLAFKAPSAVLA
# Assay: standard LpxC assay (RapidFire high-throughput mass spectrometry)
# Type: biochemical
# Conditions: 1.0 μM UDP-3-O-(R-3-hydroxymyristoyl)-N-acetylglucosamine, 60 minutes at room temperature, 2% DMSO; read-out: E.coli IC50
# Procedure: The standard LpxC assay consists of […] LpxC enzyme, 1.0 μM UDP-3-O-(R-3-hydroxymyristoyl)-N-acetylglucosamine, and test compound, in assay buffer and 2% DMSO. Assay buffer is comprised of 25 mM HEPES, pH 7.3, 150 mM NaCl, 2.0 mM DTT, and 0.01% BSA. The enzyme reaction is carried out in a 96-well assay plate, in a final volume of 102 μL. Solutions of rest compounds are prepared in 100% DMSO. Reaction additions, in order, are (1) 2.0 μL compound solution, (2) 80 μL of assay buffer, (3) 10 μL of 10 μM UDP-3-O-(R-3-hydroxymyristoyl)-N-acetylgucosamine (in assay buffer) and, (4) 10 μL of LpxC enzyme (20 nM in assay buffer) to initiate the reaction. In positive control reactions, addition (1) has 2.0 μL of 100% DMSO (without compound); these reactions are used as the total signal (TSB) value. Reactions are incubated at room temperature for 60 minutes when 10 μL of 1 N HCl is added to stop the reaction. The plate is shaken by hand for 10 seconds to ensure complete quenching. […]
# The concentrations of substrate and product in the reaction mixtures are determined with BioTrove's proprietary RapidFire™ high-throughput mass spectrometry (HTMS). […] The mass spectrometry peak areas of the substrate and product are measured to determine the concentration of these analytes. […] Percent inhibition, % I, in test samples is determined from the following equation: […]
row,Compound,IC50 [nM]
1,C[C@@H](O)[C@@H](NC(=O)N1CCCC(c2ccc(C#Cc3ccccc3)cc2)C1)C(=O)NO (some centres unmarked) [Compound 41],50 to 500
2,C[C@@H](NC(=O)N[C@@H](C(=O)NO)[C@@H](C)O)c1ccc(-n2cccn2)cc1 [Compound 46],5000 to 10000

# Reference: patent US20110212080A1, “UREA DERIVATIVES AS ANTIBACTERIAL AGENTS” (priority 2008, published 2011)
